Measurements as given in patent publication US4110368A, “Hydro substituted prostanoic acids and esters” (American Cyanamid Company, priority 1977, dated 1978).

Key:
[1] = tested on: ulcerogenic properties of indomethacin; test: protection against indomethacin-induced ulcers (ulcer score); type: in vivo, rat; conditions: two half doses by gavage, indomethacin 20 mg./kg. s.c., ulcer scale 0-4, score 2.5 or lower = active
Procedure: The compounds of this invention provide protection against the ulcerogenic properties of indomethacin. This assay was carried out in the following manner.
Rats were starved for 48 hours (water was given ad libitum). Indomethacin (20 mg./kg. of body weight) was administered by the subutaneous route and one-half the dose of the test compound was administered by gavage at the same time. After 3 hours, the second half of the test compound was administered also by Gavage. Five hours after the administration of indomethacin the animals were decapitated and the stomachs removed. The stomachs were washed with distilled water, blotted on gauze, cut along the larger curvature, and the contents rinsed with distilled water. The stomachs were spread out, pinned on a cork and visualized under magnifying glass for ulcers. The criteria for scoring of ulcers was as previously reported. [Abdel-Galil et al. Brit. J. Pharmac. Chemotherapy 33:1-14 (1968)].
1 -- Petechial hemorrhage or pin point ulcer
3 -- Many ulcers, a few large
4 -- Many ulcers, mainly large
Control animals treated with indomethacin but not test compound consistently give scores of about 3.0-3.5. Control animals treated with neither indomethacin nor test compound give scores of about 0.5-0.8. Compounds producing a score of 2.5 or lower are considered to be active.

gastric acid secretion = gastric acid secretion inhibition, modified Shay rat procedure; type: in vivo, rat (male, CFE strain); conditions: intraduodenal dose 100 mg./kg. of body weight; 3 hours; 20% or more = active
Procedure: The novel compounds of the present invention are also effective inhibitors of gastric acid secretion and of ulcer development in experimental animals, and thus are potentially valuable as agents for the control of gastric acid secretion and of gastric erosion and as anti-ulcer agents. Gastric acid secretion inhibitory action is usually measured by the "Shay rat" procedure ^(1,2) with some modifications as follows.
The rats (male, CFE strain) were starved for 48 hours (water was given ad libitum) to permit evacuation of stomach contents. On the morning of the experiment, under ether anesthesia, the abdominal region was shaved and a midline incision (1-1 1/2 inch) was made with a scapel. […]
The abdominal cavity was exposed by cutting with scissors and the esophagus close to the stomach was clamped off with a hemostat, the stomach was removed by cutting above the hemostat (the esophagus was cut) and between the two sutures. […] The supernatant was collected, volume measured and recorded, 2 drops of a phenolphthalein indicator (1% in 95% ethanol) were added and the solution was titrated with 0.02N NaOH (or with 0.04N NaOH when large volumes of stomach contents were encountered) to pH 8.4 (because of usual coloring of the stomach contents, phenolphthalein was only used to permit visual indication that the end point was near) and the amount of acid present was calculated. […]

[2] = total oral dose 25 mg./kg. of body weight, control 3.2

CCCCCC(O)/C=C\[C@H]1CCC(=O)[C@@H]1CCCCCCC(=O)O (relative stereo) [9-oxo-15-hydroxy-13-cis-prostenoic acid, 15-hydroxy-9-oxo-13-cis-prostenoic acid]
Score, Treated ([1]; total oral dose 100 mg./kg. of body weight, control 3.0): 1.3

CCCCCC(O)/C=C/[C@H]1CCC(=O)[C@@H]1CCCCC(C)(C)CC(=O)O (relative stereo) [9-oxo-15-hydroxy-3,3-dimethyl-13-trans-prostenoic acid]
Percent Inhibition (gastric acid secretion) (gastric acid secretion): 51%

CCCCC(CC)C(O)/C=C/[C@H]1CCC(=O)[C@@H]1CCCCCCC(=O)O (relative stereo) [9-oxo-15-hydroxy-16-ethyl-13-trans-prostenoic acid]
Score, Treated [1, 2]: 1.7

CCCCCC(O)/C=C/[C@H]1CCC(=O)[C@@H]1CCCCCC(CC)C(=O)O (relative stereo)
Score, Treated ([1]; total oral dose 50 mg./kg. of body weight, control 3.0): 2.2

CCCCC[C@@H](O)/C=C/[C@H]1CCC(=O)[C@@H]1CCCCSCC(=O)O (relative stereo) [9-oxo-3-thia-15-epi-hydroxy-13-trans-prostenoic acid]
Score, Treated [1, 2]: 2.3

CCCCCC(O)/C=C/C1CCC(=O)C1CCCCSCC(=O)O (stereo not drawn) [9-oxo-3-thia-15-hydroxy-13-trans-prostenoic acid]
Score, Treated [1, 2]: 1.8

CCCCCC(O)/C=C/C1CCC(=O)C1(C)CCCCCCC(=O)O (stereo not drawn) [9-oxo-8β-methyl-15-hydroxy-13-trans-prostenoic acid]
Score, Treated ([1]; total oral dose 12.5 mg./kg. of body weight, control 3.0): 2.0
